How the values were obtained:
KSHV-infected DMVEC [1] = experiment: PMO antisense inhibition of KSHV-induced spindle cell and foci formation (Example 3); assay type: cell-based, human; details: for Extent of PMO-induced Inhibition of Spindle Cell Formation: KSHV-infected DMVEC loaded with gene-specific PMO antisense + EPEI; for Phenotype Inhibition (inhibition of spindle cell formation) / KSHV-induced spindle cell / foci formation (in words): KSHV-infected DMVEC; for Phenotype Inhibition (inhibition of spindle cell formation): gene-specific PMO antisense; for KSHV-induced spindle cell / foci formation (in words): PMO antisense, c-Kit: 1.25 nmol PMO + 2.5 μl EPEI per 35 mm dish
Source text: Antisense Gene Silencing using PMOs. […] Silencing of such genes precluded progression into the transformed phenotype when silencing occurred prior to transformation, or induced reversion to the normal state when silencing occurred after induction of the transformed state (see TABLE 2 below).
Introduction of antisense PMO into KSHV-infected DMVEC. Antisense PMO molecules, for delivery purposes, are typically converted to a paired duplex together with a partially complementary cDNA oligonucleotide in the weakly basic delivery reagent ethoxylated polyethylenimine (EPEI) (Summerton, supra). The anionic complex binds to the cell surface, is taken up by endocytosis and eventually released into the cytosol. A protocol for optimum uptake of antisense PMO in immortalized DMVEC was developed using a modification of the EPEI method. Briefly, uninfected, immortalized DMVECs were incubated for 3 hours at 37° C. with 0.6 nmol/well FITC-PMO complexed with EPEI according to the manufacturer's instructions (GeneTools, LLC, One Summerton Way, Philomath, Oreg. 97370) (e.g., 1.25 nMol oligomer with 2.5 μl EPEI reagent per 35 mm dish, allowing for sufficient antisense uptake without non-specific EPEI-induced toxicity). The PMOs were labeled with FITC to allow for monitoring of loading efficiency by fluorescence microscopy.
Specifically, DMVEC were infected with KSHV, plated in 35 mm dishes and allowed to grow to about 90% confluence. For treatment, KSHV-infected cells were treated with the anti-c-Kit PMO-antisense oligomer-EPEI delivery reagent complex and incubated for 3 hours at 37° C. in serum-free medium to allow for oligomer uptake. A titration experiment testing a range of different oligomer/EPEI volumes was used to determine that loading 1.25 nmol oligomer with 2.5 μl EPEI reagent per 35 mm dish allowed efficient antisense uptake without non-specific EPEI-induced toxicity. Control (mock-treated) DMVEC cultures were loaded with EPEI reagent and sterile water or sterile water alone. Upon removal of the oligomer-EPEI solution, cell monolayers were rinsed in serum-free medium fed with complete medium and examined daily for one week by phase microscopy for evidence of phenotypic change.

KSHV-infected DMVEC [2] = experiment: XTT proliferation assay of PMO-loaded KSHV-infected DMVEC (Example 3); assay type: cell-based, human; details: PMO antisense silencing
Procedure: Proliferation assays, and loading of cells with PMOs. Proliferation of KSHV-infected DMVEC was quantified using an XTT (2,3-bis-(2-methoxy-4-nitro-5-sulfophenyl)-2H-tetrazolium-5-carboxanilide, disodium salt)-based assay. KSHV-infected cells were added to Primaria 96-well trays (Becton Dickinson) at 1×10^4 or 5×10^4 cells/well. XTT (Roche, Molecular Biochemicals, Indianapolis, Ind.) was added 48 hours later according to the manufacturer's instructions. Absorbance was read after 4 to 6 hours on a microplate reader.
Briefly, cells were plated in 96-well trays at a density approaching confluence (5×10^4 cells per well) in 100 μl of complete medium. PMOs were loaded the following day in a total of 100 μl (0.5 μl PMO, 0.5 μl EPEI, 49 μl H2O and 50 μl serum free medium) with reagent mixing as described by the manufacturer (GeneTools). Controls included a FITC PMO control oligonucleotide, EPEI only or H2O only. Each variable was performed in quadruplicate. Fresh complete medium was replaced 4 hours after loading. Cells were cultured for 4 days to allow for multi-layered cell growth post-confluence in the absence of any growth inhibition. XTT was added on day 4 of culture and the absorbance read 4 hrs later on a microplate reader. Cell proliferation (growth) values are given as percentage inhibition values, relative to cells without PMO, which are adjusted to 100%.

KSHV-infected DMVEC [3] = experiment: Morpholino treatment and focus inhibition assay (Example 5); assay type: cell-based, human; details: for Foci/spindle morpholigical inhibition: PMO-treated KSHV-infected DMVEC vs control PMO, repeated three times
Procedure: Morpholino Treatment and Focus Inhibition Assay. Phosphorodiamidate morpholino antisense oligonucleotides (PMO-AS) were designed and synthesized by Gene Tools LLC (Philomath, Oreg.) as a Special Delivery formulation, which pairs the morpholino with a partially complementary DNA oligo. A weakly basic delivery agent, Ethoxylated Polyethlyenimine (EPEI) is then used to deliver the anionic morpholino/DNA duplex into the cytosol. PMO-AS were received as sterile, lyophilized solids ([…]) that were solubilized in sterile water to obtain 0.5 mM stock solutions. To load a 35 mm dish of DMVEC at 90% confluence, 5 microl of stock solution was mixed with 5 microl of EPEI delivery solution in 590 μl H20 for 20 minutes at room temperature, and then mixed with 1.5 ml of serum-free RPMI medium. Endothelial growth media was removed from DMVEC, and replaced with the PMO-AS:EPEI:RPMI delivery solution for 3 hours in a 37° C. incubator. After incubation, cells were rinsed, complete endothelial growth medium was added and cells were cultured for up to 10 days without sub-culture, with media replacement every 48-72 hours. This protocol allows for the characteristic post-confluent growth and development of multi-layered spindle-cell aggregates (foci) in KSHV-infected cultures. Cells were monitored daily under the phase microscope to evaluate PMO-AS-inhibition of the development of these foci. At the conclusion of an assay, cells were fixed in 2% paraformaldehyde and stained with a MAB against CD31 (Dako; 1:100) followed by a goat-anti-mouse FITC second conjugate. Junctional staining of cells with CD31 accentuated the disorganized multi-layered nature of the spindle cell aggregates as composed to the flat, organized profile of contact-inhibited cells.
For these assays, KSHV-infected DMVEC monolayers were cultured to 90% confluence and then loaded with each PMO-AS, or maintained as unloaded controls. Cultures were observed daily until control cultures had developed prominent multi-layered aggregates of spindle cells. Typically this took 5-10 days with some variation between replicate experiments. Each experiment was performed at least three times and was performed with mock-infected as well as KSHV-infected DMVEC. As expected, mock-infected DMVEC maintained a quiescent monolayer at confluence, and PMO-AS treatment of uninfected cells occurred without any adverse effect. This observation allowed verification that none of the gene knockdown treatments induced non-specific toxicity in DMVEC. The majority of tested PMO-AS had no effect on the ability of KSHV-infected DMVEC to grow post-confluence and form disorganized, multi-layered foci (TABLE 2).

KSHV-infected DMVEC [4] = details: cited from earlier work
KSHV-infected DMVEC [5] = details: cited from earlier work; remark: listed apart in the source
Uninfected DMVEC = details: cited from earlier work

Question: With “ANGPTL2: PMO antisense to ANGPTL2, AGCATGTCACGCACAGTGGCCTCAT (SEQ ID NO:33) (all phosphorodiamidate morpholino (PMO); delivered paired with partially complementary DNA oligo (Special Delivery))” as the compound, how does the “Extent of PMO-induced Inhibition of Spindle Cell Formation” value (KSHV-infected DMVEC [1]) read?
Answer: intermediate

Question: What about the “Phenotype Inhibition (inhibition of spindle cell formation)” value (“Phenotype Inhibition” for short) (KSHV-infected DMVEC [1]) of the same compound?
Answer: Intermediate

Question: What about the “KSHV-induced spindle cell / foci formation (in words)” value (KSHV-infected DMVEC [1]) of the same compound?
Answer: intermediate inhibitory effects

Question: With “MFAP3: PMO antisense to MFAP3, TGAATAAGCAACAATGTAGCTTCAT (SEQ ID NO:24) (all phosphorodiamidate morpholino (PMO); delivered paired with partially complementary DNA oligo (Special Delivery, EPEI))” as the compound, how does the “Extent of PMO-induced Inhibition of Spindle Cell Formation” value (KSHV-infected DMVEC [1]) read?
Answer: none

Question: What about the “Phenotype Inhibition” value (KSHV-infected DMVEC [1]) of the same compound?
Answer: no and None

Question: And the “KSHV-induced spindle cell / foci formation (in words)” value (KSHV-infected DMVEC [1])?
Answer: little or no affect

Question: And the “inhibition of KSHV-induced cellular proliferation (in words)” value (KSHV-infected DMVEC [2])?
Answer: relatively little or no significant inhibition

Question: And the Foci/spindle morpholigical inhibition (KSHV-infected DMVEC [3])?
Answer: None

Question: For “INSR: PMO antisense to INSR, GGGTCTCCTCGGATCAGGCGCG (SEQ ID NO:20) (all phosphorodiamidate morpholino (PMO); delivered paired with partially complementary DNA oligo (Special Delivery))”, which “Extent of PMO-induced Inhibition of Spindle Cell Formation” value (KSHV-infected DMVEC [1]) is on record?
Answer: intermediate

Question: What about the “Phenotype Inhibition” value (KSHV-infected DMVEC [1]) of the same compound?
Answer: Intermediate

Question: And the “KSHV-induced spindle cell / foci formation (in words)” value (KSHV-infected DMVEC [1])?
Answer: intermediate inhibitory effects

Question: And the “inhibition of KSHV-induced cellular proliferation (in words)” value (KSHV-infected DMVEC [2])?
Answer: substantial inhibition

Question: And the “effect on phenotype (foci, spindle shape) in focus-inhibition assay (in words)” value (KSHV-infected DMVEC [3]; PMO-AS, KSHV-infected DMVEC, 5-10 days)?
Answer: marginal but reproducible effect on phenotype

Question: What about the Foci/spindle morpholigical inhibition (KSHV-infected DMVEC [3]) of the same compound?
Answer: Intermediate

Question: With “IGFBP2: PMO antisense to IGFBP2, GGCAGCCCACTCTCTCGGCAGCATG (SEQ ID NO:16) (all phosphorodiamidate morpholino (PMO); delivered paired with partially complementary DNA oligo (Special Delivery))” as the compound, how does the “Extent of PMO-induced Inhibition of Spindle Cell Formation” value (KSHV-infected DMVEC [1]) read?
Answer: full

Question: And the “Phenotype Inhibition” value (KSHV-infected DMVEC [1])?
Answer: Full

Question: And the “KSHV-induced spindle cell / foci formation (in words)” value (KSHV-infected DMVEC [1])?
Answer: fully reversed spindle cell formation

Question: What about the “inhibition of KSHV-induced cellular proliferation (in words)” value (KSHV-infected DMVEC [2]) of the same compound?
Answer: substantial inhibition

Question: And the Foci/spindle morpholigical inhibition (KSHV-infected DMVEC [3])?
Answer: Full

Question: With “K1AA0367: PMO antisense to KIAA0367, GTCAGTTTACTCATGTCATCTATTG (SEQ ID NO:18) (all phosphorodiamidate morpholino (PMO); delivered paired with partially complementary DNA oligo (Special Delivery))” as the compound, how does the “Extent of PMO-induced Inhibition of Spindle Cell Formation” value (KSHV-infected DMVEC [1]) read?
Answer: intermediate

Question: And the “Phenotype Inhibition” value (KSHV-infected DMVEC [1])?
Answer: Intermediate

Question: And the “KSHV-induced spindle cell / foci formation (in words)” value (KSHV-infected DMVEC [1])?
Answer: intermediate inhibitory effects

Question: What about the “inhibition of KSHV-induced cellular proliferation (in words)” value (KSHV-infected DMVEC [2]) of the same compound?
Answer: substantial inhibition

Question: With “LOX: PMO antisense to LOX, GGAGCACGGTCCAGGCGAAGCGCAT (SEQ ID NO:31) (all phosphorodiamidate morpholino (PMO); delivered paired with partially complementary DNA oligo (Special Delivery, EPEI))” as the compound, how does the “Extent of PMO-induced Inhibition of Spindle Cell Formation” value (KSHV-infected DMVEC [1]) read?
Answer: full

Question: What about the “Phenotype Inhibition” value (KSHV-infected DMVEC [1]) of the same compound?
Answer: Full

Question: And the “KSHV-induced spindle cell / foci formation (in words)” value (KSHV-infected DMVEC [1])?
Answer: fully reversed spindle cell formation

Question: Which “nonspecific cytotoxicity (cell viability controls)” value (KSHV-infected DMVEC [4]) does the source give for `Cc1ccc(NC(=O)c2ccc(CN3CCN(C)CC3)cc2)cc1Nc1nccc(-c2cccnc2)n1` [STI 571] here?
Answer: not due to nonspecific cytotoxicity

Question: What about the “proliferative response to exogenous SCF” value (KSHV-infected DMVEC [4]) of the same compound?
Answer: inhibited

Question: What about the focus formation (KSHV-infected DMVEC [5]; KSHV-infected DMVEC) of the same compound?
Answer: focus formation is inhibited

Question: What about the “phenotype after removal of drug” value (KSHV-infected DMVEC [5]; even after exposure of cells to a 10 μM dose) of the same compound?
Answer: regeneration of the transformed phenotype

Question: What about the “effect on cell morphology or viability” value (Uninfected DMVEC) of the same compound?
Answer: has effect on cell morphology or viability

Question: For “NOV: PMO antisense to NOV, AGCTCGTGCTCTGCACACTCTGCAT (SEQ ID NO:32) (all phosphorodiamidate morpholino (PMO); delivered paired with partially complementary DNA oligo (Special Delivery, EPEI))”, which “Extent of PMO-induced Inhibition of Spindle Cell Formation” value (KSHV-infected DMVEC [1]) is on record?
Answer: full

Question: And the “Phenotype Inhibition” value (KSHV-infected DMVEC [1])?
Answer: Full

Question: And the “KSHV-induced spindle cell / foci formation (in words)” value (KSHV-infected DMVEC [1])?
Answer: fully reversed spindle cell formation

Question: With Osteopontin as the compound, how does the “Phenotype Inhibition” value (KSHV-infected DMVEC [1]) read?
Answer: None

Question: What about the “inhibition of KSHV-induced cellular proliferation (in words)” value (KSHV-infected DMVEC [2]) of the same compound?
Answer: relatively little or no significant inhibition

Question: And the Foci/spindle morpholigical inhibition (KSHV-infected DMVEC [3])?
Answer: None

Question: With “LMO2: PMO antisense to LMO2, GCCGAGGACATTGGGGAGGGAGGCG (SEQ ID NO:23) (all phosphorodiamidate morpholino (PMO); delivered paired with partially complementary DNA oligo (Special Delivery, EPEI))” as the compound, how does the “Extent of PMO-induced Inhibition of Spindle Cell Formation” value (KSHV-infected DMVEC [1]) read?
Answer: none

Question: What about the “KSHV-induced spindle cell / foci formation (in words)” value (KSHV-infected DMVEC [1]) of the same compound?
Answer: little or no affect

Question: And the Foci/spindle morpholigical inhibition (KSHV-infected DMVEC [3])?
Answer: None

Question: With “IFACTOR: PMO antisense to IFACTOR, AGCTTCATGTTGGAGGTGTTCG (SEQ ID NO:22) (all phosphorodiamidate morpholino (PMO); delivered paired with partially complementary DNA oligo (Special Delivery))” as the compound, how does the “Extent of PMO-induced Inhibition of Spindle Cell Formation” value (KSHV-infected DMVEC [1]) read?
Answer: none

Question: And the “Phenotype Inhibition” value (KSHV-infected DMVEC [1])?
Answer: None

Question: And the “KSHV-induced spindle cell / foci formation (in words)” value (KSHV-infected DMVEC [1])?
Answer: little or no affect

Question: What about the “inhibition of KSHV-induced cellular proliferation (in words)” value (KSHV-infected DMVEC [2]) of the same compound?
Answer: relatively little or no significant inhibition

— US20070072209A1, “Methods of treatment and diagnosis of Kaposi's sarcoma (KS) and KS related diseases” (priority 2005, published 2007)
